Data: ChEMBL document CHEMBL3045806, “Antimicrobial, analgesic, DPPH scavenging activities and molecular docking study of some 1,3,5-triaryl-2-pyrazolines” (2012)
Values after ≈ are worked out from the molar mass of the structure shown.

test system: Streptococcus pyogenes; experiment: Antimicrobial activity against Streptococcus pyogenes after 24 hr by micro dilution method; format: functional; conditions: not given

Point of comparison: Clc1ccc(C2=NN(c3ccccc3)C(c3ccc(Cl)cc3)C2)cc1 (stereo not given), MIC 30 µg/mL (≈ 81.7 µM). Against it:
- c1ccc(-c2ccc(C3=NN(c4ccccc4)C(c4ccc(-c5ccccc5)cc4)C3)cc2)cc1 (stereo not given) — within 1.5-fold, 40 µg/mL (≈ 88.8 µM)
- c1ccc(C2=NN(c3ccccc3)C(c3ccccc3)C2)cc1 (stereo not given) — within 1.5-fold, 40 µg/mL (≈ 134 µM)
- Cc1ccc(C2=NN(c3ccccc3)C(c3ccc(C)cc3)C2)cc1 (stereo not given) — 1.5-fold lower, 20 µg/mL (≈ 61.3 µM)
- COc1ccc(C2=NN(c3ccccc3)C(c3ccc(OC)cc3)C2)cc1 (stereo not given) — within 1.5-fold, 40 µg/mL (≈ 112 µM)

test system: Mus musculus; experiment: Analgesic activity in Mus musculus Swiss albino (mouse) assessed as protection against acetic acid-induced writhing at 100 mg/kg, po administered 1 hr prior challenge measured after 5 min of challenge for 20 min; format: functional; conditions: not given

Point of comparison: Clc1ccc(C2=NN(c3ccccc3)C(c3ccc(Cl)cc3)C2)cc1 (stereo not given), Activity 50%. Against it:
- c1ccc(-c2ccc(C3=NN(c4ccccc4)C(c4ccc(-c5ccccc5)cc4)C3)cc2)cc1 (stereo not given) — higher, 53.1%
- c1ccc(C2=NN(c3ccccc3)C(c3ccccc3)C2)cc1 (stereo not given) — higher, 57.8%
- Cc1ccc(C2=NN(c3ccccc3)C(c3ccc(C)cc3)C2)cc1 (stereo not given) — higher, 58.16%
- COc1ccc(C2=NN(c3ccccc3)C(c3ccc(OC)cc3)C2)cc1 (stereo not given) — higher, 58.74%

test system: Bacillus subtilis; experiment: Antimicrobial activity against Bacillus subtilis after 24 hr by micro dilution method; format: functional; conditions: not given

Point of comparison: c1ccc(-c2ccc(C3=NN(c4ccccc4)C(c4ccc(-c5ccccc5)cc4)C3)cc2)cc1 (stereo not given), MIC 40 µg/mL (≈ 88.8 µM). Against it:
- c1ccc(C2=NN(c3ccccc3)C(c3ccccc3)C2)cc1 (stereo not given) — the same, 40 µg/mL (≈ 134 µM)
- Cc1ccc(C2=NN(c3ccccc3)C(c3ccc(C)cc3)C2)cc1 (stereo not given) — within 1.5-fold, 30 µg/mL (≈ 91.9 µM)
- COc1ccc(C2=NN(c3ccccc3)C(c3ccc(OC)cc3)C2)cc1 (stereo not given) — the same, 40 µg/mL (≈ 112 µM)
- Clc1ccc(C2=NN(c3ccccc3)C(c3ccc(Cl)cc3)C2)cc1 (stereo not given) — within 1.5-fold, 30 µg/mL (≈ 81.7 µM)

test system: Klebsiella pneumoniae; experiment: Antimicrobial activity against Klebsiella pneumoniae at 40 ug/ml after 24 hr by agar well diffusion method; format: functional; conditions: read-out: IZ

Point of comparison: c1ccc(-c2ccc(C3=NN(c4ccccc4)C(c4ccc(-c5ccccc5)cc4)C3)cc2)cc1 (stereo not given), zone of inhibition at 40 µg/mL 23 mm. Against it:
- c1ccc(C2=NN(c3ccccc3)C(c3ccccc3)C2)cc1 (stereo not given) — the same, 23 mm
- Cc1ccc(C2=NN(c3ccccc3)C(c3ccc(C)cc3)C2)cc1 (stereo not given) — higher, 24 mm
- COc1ccc(C2=NN(c3ccccc3)C(c3ccc(OC)cc3)C2)cc1 (stereo not given) — lower, 22 mm
- Clc1ccc(C2=NN(c3ccccc3)C(c3ccc(Cl)cc3)C2)cc1 (stereo not given) — lower, 20 mm

test system: Bacillus subtilis; experiment: Antimicrobial activity against Bacillus subtilis at 40 ug/ml after 24 hr by agar well diffusion method; format: functional; conditions: read-out: IZ

Point of comparison: Cc1ccc(C2=NN(c3ccccc3)C(c3ccc(C)cc3)C2)cc1 (stereo not given), zone of inhibition at 40 µg/mL 20 mm. Against it:
- c1ccc(-c2ccc(C3=NN(c4ccccc4)C(c4ccc(-c5ccccc5)cc4)C3)cc2)cc1 (stereo not given) — higher, 23 mm
- c1ccc(C2=NN(c3ccccc3)C(c3ccccc3)C2)cc1 (stereo not given) — higher, 23 mm
- COc1ccc(C2=NN(c3ccccc3)C(c3ccc(OC)cc3)C2)cc1 (stereo not given) — higher, 21 mm
- Clc1ccc(C2=NN(c3ccccc3)C(c3ccc(Cl)cc3)C2)cc1 (stereo not given) — higher, 22 mm

test system: Streptococcus pyogenes; experiment: Antimicrobial activity against Streptococcus pyogenes at 40 ug/ml after 24 hr by agar well diffusion method; format: functional; conditions: read-out: IZ

Point of comparison: Clc1ccc(C2=NN(c3ccccc3)C(c3ccc(Cl)cc3)C2)cc1 (stereo not given), zone of inhibition at 40 µg/mL 24 mm. Against it:
- c1ccc(-c2ccc(C3=NN(c4ccccc4)C(c4ccc(-c5ccccc5)cc4)C3)cc2)cc1 (stereo not given) — lower, 21 mm
- c1ccc(C2=NN(c3ccccc3)C(c3ccccc3)C2)cc1 (stereo not given) — lower, 23 mm
- Cc1ccc(C2=NN(c3ccccc3)C(c3ccc(C)cc3)C2)cc1 (stereo not given) — lower, 22 mm
- COc1ccc(C2=NN(c3ccccc3)C(c3ccc(OC)cc3)C2)cc1 (stereo not given) — lower, 23 mm

test system: Aspergillus niger; experiment: Antimicrobial activity against Aspergillus niger at 40 ug/ml after 72 hr by agar well diffusion method; format: functional; conditions: read-out: IZ

Point of comparison: Clc1ccc(C2=NN(c3ccccc3)C(c3ccc(Cl)cc3)C2)cc1 (stereo not given), zone of inhibition at 40 µg/mL 22 mm. Against it:
- c1ccc(-c2ccc(C3=NN(c4ccccc4)C(c4ccc(-c5ccccc5)cc4)C3)cc2)cc1 (stereo not given) — the same, 22 mm
- c1ccc(C2=NN(c3ccccc3)C(c3ccccc3)C2)cc1 (stereo not given) — higher, 23 mm
- Cc1ccc(C2=NN(c3ccccc3)C(c3ccc(C)cc3)C2)cc1 (stereo not given) — higher, 24 mm
- COc1ccc(C2=NN(c3ccccc3)C(c3ccc(OC)cc3)C2)cc1 (stereo not given) — lower, 21 mm

test system: not listed separately; experiment: Antioxidant activity assessed as DPPH scavenging activity at 10 ug/ml after 30 min by UV-visible spectrophotometry; format: functional; conditions: not given

Point of comparison: Clc1ccc(C2=NN(c3ccccc3)C(c3ccc(Cl)cc3)C2)cc1 (stereo not given), Activity 31.8%. Against it:
- c1ccc(-c2ccc(C3=NN(c4ccccc4)C(c4ccc(-c5ccccc5)cc4)C3)cc2)cc1 (stereo not given) — lower, 18.2%
- c1ccc(C2=NN(c3ccccc3)C(c3ccccc3)C2)cc1 (stereo not given) — lower, 23.1%
- Cc1ccc(C2=NN(c3ccccc3)C(c3ccc(C)cc3)C2)cc1 (stereo not given) — lower, 22.4%
- COc1ccc(C2=NN(c3ccccc3)C(c3ccc(OC)cc3)C2)cc1 (stereo not given) — higher, 39.6%

test system: Aspergillus niger; experiment: Antimicrobial activity against Aspergillus niger after 24 hr by micro dilution method; format: functional; conditions: not given

Point of comparison: COc1ccc(C2=NN(c3ccccc3)C(c3ccc(OC)cc3)C2)cc1 (stereo not given), MIC 30 µg/mL (≈ 83.7 µM). Against it:
- c1ccc(-c2ccc(C3=NN(c4ccccc4)C(c4ccc(-c5ccccc5)cc4)C3)cc2)cc1 (stereo not given) — within 1.5-fold, 40 µg/mL (≈ 88.8 µM)
- c1ccc(C2=NN(c3ccccc3)C(c3ccccc3)C2)cc1 (stereo not given) — the same, 30 µg/mL (≈ 101 µM)
- Cc1ccc(C2=NN(c3ccccc3)C(c3ccc(C)cc3)C2)cc1 (stereo not given) — within 1.5-fold, 40 µg/mL (≈ 123 µM)
- Clc1ccc(C2=NN(c3ccccc3)C(c3ccc(Cl)cc3)C2)cc1 (stereo not given) — the same, 30 µg/mL (≈ 81.7 µM)

test system: Candida albicans; experiment: Antimicrobial activity against Candida albicans at 40 ug/ml after 72 hr by agar well diffusion method; format: functional; conditions: read-out: IZ

Point of comparison: c1ccc(-c2ccc(C3=NN(c4ccccc4)C(c4ccc(-c5ccccc5)cc4)C3)cc2)cc1 (stereo not given), zone of inhibition at 40 µg/mL 21 mm. Against it:
- c1ccc(C2=NN(c3ccccc3)C(c3ccccc3)C2)cc1 (stereo not given) — the same, 21 mm
- Cc1ccc(C2=NN(c3ccccc3)C(c3ccc(C)cc3)C2)cc1 (stereo not given) — higher, 22 mm
- COc1ccc(C2=NN(c3ccccc3)C(c3ccc(OC)cc3)C2)cc1 (stereo not given) — lower, 20 mm
- Clc1ccc(C2=NN(c3ccccc3)C(c3ccc(Cl)cc3)C2)cc1 (stereo not given) — the same, 21 mm

test system: Pseudomonas aeruginosa; experiment: Antimicrobial activity against Pseudomonas aeruginosa at 40 ug/ml after 24 hr by agar well diffusion method; format: functional; conditions: read-out: IZ

Point of comparison: Cc1ccc(C2=NN(c3ccccc3)C(c3ccc(C)cc3)C2)cc1 (stereo not given), zone of inhibition at 40 µg/mL 23 mm. Against it:
- c1ccc(-c2ccc(C3=NN(c4ccccc4)C(c4ccc(-c5ccccc5)cc4)C3)cc2)cc1 (stereo not given) — lower, 22 mm
- c1ccc(C2=NN(c3ccccc3)C(c3ccccc3)C2)cc1 (stereo not given) — lower, 22 mm
- COc1ccc(C2=NN(c3ccccc3)C(c3ccc(OC)cc3)C2)cc1 (stereo not given) — higher, 24 mm
- Clc1ccc(C2=NN(c3ccccc3)C(c3ccc(Cl)cc3)C2)cc1 (stereo not given) — lower, 21 mm

test system: Pseudomonas aeruginosa; experiment: Antimicrobial activity against Pseudomonas aeruginosa after 24 hr by micro dilution method; format: functional; conditions: not given

Point of comparison: c1ccc(-c2ccc(C3=NN(c4ccccc4)C(c4ccc(-c5ccccc5)cc4)C3)cc2)cc1 (stereo not given), MIC 30 µg/mL (≈ 66.6 µM). Against it:
- c1ccc(C2=NN(c3ccccc3)C(c3ccccc3)C2)cc1 (stereo not given) — the same, 30 µg/mL (≈ 101 µM)
- Cc1ccc(C2=NN(c3ccccc3)C(c3ccc(C)cc3)C2)cc1 (stereo not given) — within 1.5-fold, 40 µg/mL (≈ 123 µM)
- COc1ccc(C2=NN(c3ccccc3)C(c3ccc(OC)cc3)C2)cc1 (stereo not given) — the same, 30 µg/mL (≈ 83.7 µM)
- Clc1ccc(C2=NN(c3ccccc3)C(c3ccc(Cl)cc3)C2)cc1 (stereo not given) — the same, 30 µg/mL (≈ 81.7 µM)

test system: Candida albicans; experiment: Antimicrobial activity against Candida albicans after 24 hr by micro dilution method; format: functional; conditions: not given

Point of comparison: Clc1ccc(C2=NN(c3ccccc3)C(c3ccc(Cl)cc3)C2)cc1 (stereo not given), MIC 30 µg/mL (≈ 81.7 µM). Against it:
- c1ccc(-c2ccc(C3=NN(c4ccccc4)C(c4ccc(-c5ccccc5)cc4)C3)cc2)cc1 (stereo not given) — within 1.5-fold, 40 µg/mL (≈ 88.8 µM)
- c1ccc(C2=NN(c3ccccc3)C(c3ccccc3)C2)cc1 (stereo not given) — the same, 30 µg/mL (≈ 101 µM)
- Cc1ccc(C2=NN(c3ccccc3)C(c3ccc(C)cc3)C2)cc1 (stereo not given) — the same, 30 µg/mL (≈ 91.9 µM)
- COc1ccc(C2=NN(c3ccccc3)C(c3ccc(OC)cc3)C2)cc1 (stereo not given) — within 1.5-fold, 40 µg/mL (≈ 112 µM)

test system: Klebsiella pneumoniae; experiment: Antimicrobial activity against Klebsiella pneumoniae after 24 hr by micro dilution method; format: functional; conditions: not given

Point of comparison: c1ccc(-c2ccc(C3=NN(c4ccccc4)C(c4ccc(-c5ccccc5)cc4)C3)cc2)cc1 (stereo not given), MIC 30 µg/mL (≈ 66.6 µM). Against it:
- c1ccc(C2=NN(c3ccccc3)C(c3ccccc3)C2)cc1 (stereo not given) — within 1.5-fold, 40 µg/mL (≈ 134 µM)
- Cc1ccc(C2=NN(c3ccccc3)C(c3ccc(C)cc3)C2)cc1 (stereo not given) — the same, 30 µg/mL (≈ 91.9 µM)
- COc1ccc(C2=NN(c3ccccc3)C(c3ccc(OC)cc3)C2)cc1 (stereo not given) — the same, 30 µg/mL (≈ 83.7 µM)
- Clc1ccc(C2=NN(c3ccccc3)C(c3ccc(Cl)cc3)C2)cc1 (stereo not given) — the same, 30 µg/mL (≈ 81.7 µM)
